Test results taken from US20190177279A1, “CARBOXYLIC ACID AROMATIC 1,2-CYCLOPROPYLAMIDES” (Bayer Pharma Aktiengesellschaft, priority 2017, published 2019).
Like-named read-outs stand apart in the source and are kept apart here.

Columns and labels:
[1] = due to metabolic liability; prior art; cited from earlier work
IL-6 secretion = experiment: Bradykinin B1 receptor agonist-induced secretion of IL-6 in human IMR-90 cells; type: cell-based; conditions: 0.1 μM Lys-[Des-Arg9]Bradykinin and 0.1 μM Sar-[D-Phe8]-des-Arg9-Bradykinin, 5 hours
Text: (§1) Inhibitory Activity on Bradykinin B1 Receptor Agonist-Induced Secretion of IL-6 and IL-8 in Human IMR-90 Cells
(§2) The effect of the compound examples on secretion of the cytokine IL-6 and IL-8 was investigated in the human foetal lung fibroblast IMR-90 cell line. Here the induction of the cytokine secretion was induced by the Bradykinin B1 receptor agonists Lys-[Des-Arg9]Bradykinin (CAS 71800-36-7, Tocris Bioscience) and Sar-[D-Phe8]-des-Arg9-Bradykinin (CAS 126959-88-4, Tocris Bioscience) leading to the activation of the Bradykinin B1-driven signalling pathway. […]
(§3) IMR-90 cells were cultured in Eagle's Minimum Essential Medium (EMEM) containing 2 mM L-glutamine, 1 g/L glucose, 1.5 g/L NaHCO3, 1 mM sodium pyruvate and non-essential amino acids (ATCC, 30-2003™) supplemented with 10% FBS (Biochrom, 50615) and 50 U/mL Penicillin, 50 μg/mL Streptomycin (PAA, P11-010). […] The compound examples were serially diluted in 100% DMSO and evaluated at 8 different concentrations within the range of 3 nM and 10 μM and a final DMSO concentration of 0.4%. […] The amount of IL-6 and IL-8 in the supernatant was determined using the Human ProInflammatory Panel II (4-Plex) (MSD, K15025B) according to manufacturer's instruction. […] The cell viability was measured using the CellTiter-Glo Luminescent Assay (Promega, G7571) following the manufacturers protocol. […]

human B1 receptor = target: T1, human B1 receptor (Homo sapiens, UniProt P46663); experiment: Calcium flux assay (FLIPR) with recombinant CHO-K1 cells expressing human B1 receptor; type: cell-based; conditions: agonist Lys-(Des-Arg)-Bradykinin
T1 construct: host or cells: CHO-K1
T1 sequence (P46663 1-353): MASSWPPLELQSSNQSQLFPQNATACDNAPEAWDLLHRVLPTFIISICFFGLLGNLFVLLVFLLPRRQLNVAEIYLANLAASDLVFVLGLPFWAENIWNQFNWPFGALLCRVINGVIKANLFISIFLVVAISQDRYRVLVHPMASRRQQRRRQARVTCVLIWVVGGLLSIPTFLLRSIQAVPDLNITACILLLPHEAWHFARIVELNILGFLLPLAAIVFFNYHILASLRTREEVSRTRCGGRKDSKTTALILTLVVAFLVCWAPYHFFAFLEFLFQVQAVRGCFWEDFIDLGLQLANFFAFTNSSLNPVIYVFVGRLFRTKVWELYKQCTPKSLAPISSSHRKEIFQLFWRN
Protocol: The potency to inhibit the Bradykinin B1 receptors was determined for the example compounds of this invention in a cell-based fluorescent calcium-mobilisation assay. The assay measures the ability of example compounds to inhibit Bradykinin B1 receptor agonist-induced increase of intracellular free Ca^2+ in the cell line expressing B1 receptor. Specifically, calcium indicator—loaded cells are pre-incubated in the absence or presence of different concentrations of example compounds followed by the stimulation with a selective B1 receptor agonist peptide. The change of the intracellular Ca^2+ concentration is monitored with a fluorescent plate reader FLIPR (Molecular Devices).
Calcium flux Assay (FLIPR) with recombinant cells for Bradykinin B1 receptor antagonist, either in the presence (hB1 IC50) or absence (hB1 free IC50) of 0.1% BSA in assay buffer
CHO-K1 cell line expressing human B1 receptor was purchased from Euroscreen (Gosselies, Belgium, with reference name hB1-D1). The cells were grown in Nutrient Mixture Ham's F12 (Sigma) containing 10% Foetal bovine serum (Sigma) and 400 μg/mL G418 (Sigma), 5 μg/mL puromycin (Sigma).
For the calcium flux assay, 80% confluent cells were detached from the culture vessels with Versene (Gibco), and seeded into 384-well plates (Cell binding Surface; Corning, N.Y.; #3683) at a density of 15,000 cells per well. Cells were seeded in a volume of 50 μL in medium without antibiotics and incubated overnight in a humidified atmosphere with 5% CO2 at 37° C. […] The calcium indicator loaded cells were incubated at 37° C. for 2 hrs. Extracellular dye was then removed and each well was filled with 45 μL of assay buffer. Cell plates were kept in dark until used. Example compounds were assayed at 8 concentrations in triplicate. Serial 10-fold dilutions in 100% DMSO were made at a 100-times higher concentration than the final concentration, and then diluted 1:10 in assay buffer. 5 μL of each diluted compound was added to the well of cell plates (yielding final concentration with 1% DMSO), and incubated for 30 min at 28° C. before the addition of B1 receptor agonist on the FLIPR instrument.
Agonist plates contained the agonist Lys-(Des-Arg)-Bradykinin (Bachem, Brackley) at 3.5×EC90 in assay buffer with 1% DMSO. The addition of agonist 20 μl per well to the assay plate was carried out on the FLIPR instrument while continuously monitoring Ca^2+-dependent fluorescence at 538 nm. A peptide antagonist Lys-(Des-Arg-Leu)-Bradykinin (Bachem, Brackley) at 20 µM was used to determine the full inhibition as control.
Peak fluorescence was used to determine the response to agonist obtained at each concentration of example compound by the following equation:
% Response=100*(RFU(example compound)−RFU(control)/(RFU(DMSO)−RFU(control)) • Control=full inhibition by the peptide antagonist Lys-(Des-Arg-Leu)-Bradykinin at 20 μM
The response values were plotted against the logarithm of the compound concentrations. The compounds were tested in triplicates per plate and mean values were plotted in Excel XLfit to determine IC50 values, percentage of maximal inhibition and the Hill slopes.

stimulated IMR-90 cells = experiment: Cell viability, CellTiter-Glo Luminescent Assay; type: cell-based, human
Protocol: IMR-90 cells were cultured in Eagle's Minimum Essential Medium (EMEM) containing 2 mM L-glutamine, 1 g/L glucose, 1.5 g/L NaHCO3, 1 mM sodium pyruvate and non-essential amino acids (ATCC, 30-2003™) supplemented with 10% FBS (Biochrom, 50615) and 50 U/mL Penicillin, 50 μg/mL Streptomycin (PAA, P11-010). The assay was performed in EMEM and a cell density of […] IMR-90 cells/96-well. The compound examples were serially diluted in 100% DMSO and evaluated at 8 different concentrations within the range of 3 nM and 10 μM and a final DMSO concentration of 0.4%. The IMR-90 cells were incubated with the respective concentration of the compound for 30 min. […] The amount of IL-6 and IL-8 in the supernatant was determined using the Human ProInflammatory Panel II (4-Plex) (MSD, K15025B) according to manufacturer's instruction. […] Plates were washed three times with phosphate-buffered saline (PBS; 137 mM NaCl, 2.7 mM KCl, 6.5 mM Na2HP04, 1.7 mM KH2P04) containing 0.05% Tween-20 (Bio-Rad, 161-0781) and electrochemiluminescence detected using the MSD Sector Imager 6000 plate reader. The cell viability was measured using the CellTiter-Glo Luminescent Assay (Promega, G7571) following the manufacturers protocol. […] After incubation and shaking for 10 minutes luminescent signal was measured which was proportional to the amount of ATP present. […]

IL-8 secretion = experiment: Bradykinin B1 receptor agonist-induced secretion of IL-8 in human IMR-90 cells; type: cell-based; conditions: 0.1 μM Lys-[Des-Arg9]Bradykinin and 0.1 μM Sar-[D-Phe8]-des-Arg9-Bradykinin, 5 hours
Text: as §1, §2, §3

[2] = prior art, Bioorg Med Chem Lett 2010; cited from earlier work
[3] = prior art, Bioorg Med Chem Lett 2010; cited from earlier work; remark: listed apart in the source
[4] = prior art, Bioorg Med Chem Lett 2010; cited from earlier work; remark: listed apart in the source
[5] = prior art, Bioorg Med Chem Lett 2010; cited from earlier work; remark: listed apart in the source
[6] = target: T2, native human B1 receptors (Homo sapiens, UniProt P46663); experiment: Calcium flux assay (FLIPR) with IMR-90 human foetal lung fibroblasts after IL-1 induction; type: cell-based; conditions: IMR-90 fibroblasts induced with human IL-1; 0.1% BSA in assay buffer; agonist Lys-(Des-Arg)-Bradykinin at EC90; read-out: hB1 IC50 IMR90
T2 construct: which express native human B1 receptors after induction with human IL-1; Coriell Institute; host or cells: IMR-90 human foetal lung fibroblasts, induced with human IL-1
T2 sequence (P46663 1-353): T1 sequence (P46663 1-353)
Protocol: Calcium Flux Assay (FLIPR) with Human Fibroblasts for Bradykinin B1 Receptor Antagonist (hB1 IMR-90 IC50)
The Calcium flux Assay was carried out utilising IMR-90 human foetal lung fibroblasts (American Type Culture Collection, Rockville, Md.; and Coriell Institute, Camden, N.J.), which express native human B1 receptors after induction with human IL-1[…].
The fibroblasts were cultured in complete growth media comprised of Dulbecco's modified Eagle's medium (DMEM; Sigma) containing 10% foetal bovine serum, 4 mM L-glutamine, and 1% nonessential amino acids. The cells were maintained in a humidified atmosphere with 5% CO2 at 37° C. and were sub-cultured at a ratio of 1:3, every other day.
For the assay, IMR-90 fibroblasts were harvested using TrypLE Express (GIBCO/Invitrogen) and seeded into 384-well plates (Corning Cellbinding Surface, Cat. 3683) at a density of 15000 cells/well. The following day, cells were treated with 0.35 ng/mL human IL-1[…] in 10% FBS/MEM for 3 h to up-regulate B1 receptors. Induced cells were loaded with fluorescent calcium indicator by incubation with 2.5 μM Fluo-4/AM (Invitrogen) at 37° C., 5% CO2 for 2 h in the presence of 2.5 mM probenecid in 1% FBS/MEM. Extracellular dye was removed by washing with assay buffer (2.5 mM probenecid and 0.1% BSA in 20 mM HEPES/HBSS without bicarbonate or phenol red, pH 7.5). Example compounds were assayed at 8 concentrations in triplicate. After addition of example compounds to the cell plate and incubation for 30 min at 28° C., the addition of B1 agonist Lys-(Des-Arg)-Bradykinin (Bachem, Brackley) at a final concentration of EC90 was carried out on the FLIPR instrument while continuously monitoring Ca^2+-dependent fluorescence at 538 nm. A peptide antagonist Lys-(Des-Arg-Leu)-Bradykinin (Bachem, Brackley) at 20 μM was used to determine the full inhibition as control. IC50 values were determined by the same way described for the FLIPR assay with recombinant cells.

[7] = absence of 0.1% BSA in assay buffer, read-out: hB1 free IC50

C[C@@H](NC(=O)C1(NC(=O)C(F)(F)F)CC1)c1ccc(-c2cccc(Cl)c2C(=O)O)cc1F [MK-0686]
pharmacokinetic profile [1]: suboptimal

O=C(O)c1cc(NC(=O)C2CC2c2cccc(Cl)c2)ccc1-c1cnn(C2CCC2)c1 (racemic) [Example 1, 5-({[2-(3-chlorophenyl)cyclopropyl]carbonyl}amino)-2-(1-cyclobutyl-1H-pyrazol-4-yl)benzoic acid]
IC50 (IL-6 secretion): 99 nM
IC50 (human B1 receptor; [7]): 207 nM
IC50 (human B1 receptor; presence of 0.1% BSA in assay buffer, read-out: hB1 IC50): 65 nM
effect on the cell viability (stimulated IMR-90 cells): no effect
IC50 (IL-8 secretion): 509 nM

C[C@@H]1CC[C@H](C)N1C(=O)c1ccc([C@@H](C)NC(=O)C2(NC(=O)c3cc(F)cc(C(F)(F)F)c3)CC2)c(F)c1
human metabolic stability [2]: poor
pharmacokinetic profile in rat [3]: reasonable
penetration profile [4]: acceptable
aqueous solubility [5]: reasonable

O=C(O)c1cc(NC(=O)C2CC2c2ccc(Cl)cc2)c(F)cc1-c1ccc(C(F)(F)F)nc1 (racemic) [Example 25, 5-({[2-(4-chlorophenyl)cyclopropyl]carbonyl}amino)-4-fluoro-2-[6-(trifluoromethyl)pyridin-3-yl]benzoic acid]
IC50 (human B1 receptor; [7]): 1260 nM
IC50 [6]: 4730 nM

Cc1ccc(-c2ccc(NC(=O)C3CC3c3ccc(Cl)cc3)cc2C(=O)O)cn1 (racemic) [Example 15, 5-({[2-(4-chlorophenyl)cyclopropyl]carbonyl}amino)-2-(6-methylpyridin-3-yl)benzoic acid]
IC50 (human B1 receptor; [7]): 2420 nM
IC50 [6]: 12000 nM

(+)-5-({[trans-2-(4-chlorophenyl)cyclopropyl]carbonyl}amino)-2-(1-cyclobutyl-1H-pyrazol-4-yl)-3-fluorobenzoic acid [Example 3]
IC50 (human B1 receptor; [7]): 10 nM
IC50 [6]: 51 nM

O=C(O)c1cc(NC(=O)C2CC2c2ccc(Cl)cc2)cc(F)c1-c1ccc(C(F)(F)F)nc1 (racemic) [Example 24, 5-({[2-(4-chlorophenyl)cyclopropyl]carbonyl}amino)-3-fluoro-2-[6-(trifluoromethyl)pyridin-3-yl]benzoic acid]
IC50 (human B1 receptor; [7]): 1080 nM
IC50 [6]: 2330 nM
